From ChEMBL document CHEMBL1135958, “Hepatobiliary excretion of dipyrrinone sulfonates in Mrp2-deficient (TR(-)) rats” (Bioorg Med Chem Lett, 2002)

Assay: Pharmacokinetic parameter (Tmax) was estimated
Type: ADME, organism-based
Settings: rat, in vivo

## CCC1=C(C)C(=O)N/C1=C\c1[nH]c(C)c(CCS(=O)(=O)O)c1C
  Tmax: 6 min
